The source of these data is US20260365696A1, “INHIBITORS OF PTP1B / NCK1 INTERACTION AND METHODS OF MAKING AND USING SAME” (Radella Pharmaceuticals LLC, priority 2023, published 2026).

Series [1] in a line: Microsomal metabolic stability. The series is classed as in vitro ADME. The settings on record: human liver microsomes 0.5 mg/mL, 1 μM, 37 °C. As to the method: Microsomal Metabolic Stability (human liver microsomes): Human liver microsomes (final protein concentration 0.5 mg/mL), 0.1 M phosphate buffer pH 7.4 and test compound MD20 (final substrate concentration 1 μM; final DMSO concentration 0.25%) were pre-incubated at 37 °C prior to the addition of NADPH (final concentration 1 mM) to initiate the reaction. A minus cofactor control incubation was included for each compound tested where 0.1 M phosphate buffer pH 7.4 was substituted for NADPH (“minus NADPH”).
Each compound was incubated for 0, 5, 15, 30 and 45 min. The control (minus NADPH) was incubated for 45 min only. The reactions were stopped by transferring incubate in to acetonitrile at the appropriate time points, in a 1:3 ratio. The termination plates were centrifuged at 3,000 rpm for 20 min at 4 °C to precipitate the protein. Following protein precipitation, the sample supernatants were combined in cassettes of up to 4 compounds, internal standard was added and samples were analyzed using Cyprotex generic LC-MS/MS conditions. The time point at which 30-70% of parent had degraded was then investigated at 3 different levels of metabolite profiling and/or identification. The intrinsic clearance (CLint) of the test compound was calculated.
On the technique in general: Microsomes from liver hold many membrane-bound enzymes, among them those of drug oxidation.

Another series has as its system HFD-fed mice. Nature of the series: High-fat diet-induced obesity and type 2 diabetes model. Particulars: 30 mg/kg IP daily, 7 weeks. The series is classed as in vivo, mouse. From the text:
Animals: All animals were housed and tested following European (Directive on the Protection of Animals used for Scientific Purposes, 2010/63/EU) and UK Home Office regulations. Experiments were approved by the University Ethics Board and carried out in accordance with the Animal (Scientific Procedures) Act 1986 and following ARRIVE guidelines. C57BL/6 male mice (~3-4 months) were purchased from Charles River, UK. All mice received high fat and cholesterol diet (42% fat plus 0.2% cholesterol, #TD.88137, Envigo, US) to induce experimental type 2 diabetes and obesity phenotype. All mice had ad libitum access to food and water and were kept in a 12 h light/dark cycle.
Briefly, after 8 weeks of high fat/high cholesterol diet feeding, mice were counterbalanced according to their body weight in to control (n=10) or MD20 30 mg/kg (n=10) groups. MD20 compound (30 mg/kg) was administered once daily via intraperitoneal (IP) injection for 7 weeks, whereas control mice received daily IP injection of vehicle (PBS). MD20 was kept at −20 °C and dissolved in sterile phosphate buffered saline (PBS) freshly every day before the injection. Three mice died during the study, and the final number of animals was: control (n=9) and MD20 30 mg/kg (n=8).
Bodyweights and body mass composition: Bodyweights were recorded during the study. Fat mass and lean mass composition were analysed using an EchoMRI scanner (EchoMedical Systems, Houston, TX, U.S.A.).
Metabolic measurements: All animals were 5 h-fasted before metabolic testing. Tail blood glucose was measured using AlphaTRAK 2 glucose strips and glucometer (Abbot, UK). Glucose tolerance tests (GTT) and insulin tolerance tests (ITT) were performed by IP injection of 2 mg/g of glucose (GTT) or 0.6 mU/g insulin (ITT), and glucose levels were measured at 15, 30, 60 and 90 min post-injection.
Serum and liver assays: Trunk-derived blood was collected from 5 h-fasted mice into serum separator microtubes and kept at −80 °C. Serum was used for insulin (#EZRMI-13K, Merck), leptin (#90030, Crystal Chem), free fatty acids (FFA; #mak044, Sigma-Aldrich), cholesterol (#MAK043, Sigma Aldrich), alanine, and aspartate aminotransferase (ALT and AST; ab105134 and ab105135, Abcam) analyses. Serum and liver triglycerides were determined using triglyceride reagents (#T2449, #F6428, #G7793, Sigma Aldrich).
Statistical analyses: Data were reported as means±SEM and analysed using one- or two-way ANOVA with Bonferroni post hoc tests, as appropriate. GraphPad Prism (V8, GraphPad Software, Inc., San Diego, California, USA) was used for statistical analyses. P-values <0.05 were considered significant.

Turning to Ac-PRPPKR-NH2 [MD20, Ac-PRPPKR-NH2], the “intrinsic clearance (CL int)” value in series [1] is 4.90. In the series on HFD-fed mice, the “fasted basal glucose levels” value is on record as “No significant differences”, the fasted serum cholesterol entry was “No significant differences”, the “fasted serum free fatty acids” value is recorded as “No significant differences” and the fasted serum insulin result is recorded as “No significant differences”. Further, in the series with HFD-fed mice, the fasted serum leptin entry was “No significant differences”, the hepatic toxicity result is listed as “most likely did not induce hepatic toxicity”, the liver triglycerides entry is “No significant differences” and the “serum ALT” value is reported as “No significant differences”. In the series on HFD-fed mice, the “serum AST” value is “No significant differences” and the serum triglycerides result is recorded as “No significant differences”. In the series with HFD-fed mice (vs control), the body weight gain entry was “inhibited body weight gain” and the fat mass gain entry is given as “inhibited fat mass gain”. Besides, the “glucose tolerance test (GTT)” value in the series with HFD-fed mice (2 mg/g glucose) is “No significant differences”. Besides, the “insulin sensitivity during ITT” value in the series with HFD-fed mice (0.6 mU/g insulin) was “improved insulin sensitivity during ITT”.
